Tests used:
[1] = tested on: chloroquine-resistant (W2Mef) strain of P. falciparum
Experimental: The W2Mef strain was used for these experiments. […] The following was the protocol for present experiment.
In the present study, Chloroquine-sensitive (3D7) strain and chloroquine-resistant (W2Mef) strain were used. The cultures were maintained in vitro using culture media consisting of standard RPMI-1640 supplemented with 10% heat inactivated Human Type O^+ Serum, 3.6% NaHCO3 at a hematocrit of 4%. All the assays were carried out in 96 well, flat bottom microtitre plates. For the synchronization of cultures, 5% sorbitol was used. The growth of the parasite was measured with incorporation of Hypoxanthine. A 200 μl volume of the culture parasite was added to each well initially. Different antimalarial compounds at varied concentrations were added to the wells. All the compounds were tested on both chloroquine-sensitive and chloroquine resistant strains. The plates were then placed in an airtight chamber and flushed with the gas mixture (5% CO2, 5% O2 and 90% N2). The plates were finally stored in an incubator at 37° C. for 24 hours.
At the end of the incubation period, 5 μl of diluted ^3H-Hypoxanthine—to a final concentration of 1 μCi—was added to each well. The plates were then returned to the airtight chamber and then flushed with the above gas mixture and incubated for an additional 24 hours. The plates were then stored at −70° C. until required for detection of incorporated radioactivity. When necessary, the plates were thawed and the cells were harvested onto filter-mats. These filter-mats were then dried and sealed.

P. falciparum = P. falciparum in vitro culture, parasitemia by Giemsa stained smear after 48 hrs; type: cell-based, Plasmodium falciparum; conditions: for inhibition of growth of P. falciparum: 10 μM concentration, 48 hrs incubation at 37° C.
Experimental: Selective enrichment of activity was monitored at every step using P. falciparum culture for in vitro studies.
Zinc complex of L-proline was dissolved in normal saline and filter sterilized. The compound was added to the parasite culture at different concentrations ranging from 1- 10 μM. The compound was tested at the indicated doses using the experimental protocol as described below:
Protocol for Testing the Effect of Drug on P. falciparum for In Vitro Studios
The P. falciparum cultures were synchronized at first by sorbitol treatment. The compound of various concentrations was added to the 200 μl of synchronized P. falciparum culture (1% parasitemia). The parasitemia was checked by making Giemsa stained smear after 48 hrs of incubation at 37° C.

[2] = tested on: 3D7 strain of P. falciparum; conditions: light microscope (FIG. 3)
Experimental: In this experiment, slides were prepared, stained with Giemsa and examined under a light microscope. Representative pictures are show in FIG. 3.

Plasmodium yeoeli = tested on: Plasmodium yeoeli
Text: For these experiments, the mouse malaria parasite Plasmodium yeoeli was used as this strain is considered to be closer to human parasite, P. falciparum. Groups of eight mice each were infected with 10^6 parasites/mouse through an intra-peritoneal injection. […] The drug was given once a day for a total period of six days. The mice were then left alone for an additional period of three days, after which the number of survivors were counted (i.e. at […] after infection). The results are shown here in FIG. 5. Group 1 represents a control group of uninfected mice, with no drug given. Group 3 represents the group of infected mice, again with no drug given (i.e. vehicle only).

P. berghei = conditions: about 1 mg to 50 mg/kg
Experimental: BALB/c mice (4-6 weeks old) were infected with 10^5 P. berghei parasites/mouse. […] After four days of infection, various concentrations of compound, at the doses of 10 mg/kg (Group 2) and 20 mg/kg (Group 3) body weight was injected to the mice. The control group (Group 1) indicates the group of mice infected with the parasite, but without any drug (i.e. vehicle only). Group 4 represents a group of infected mice treated with Pyrimethamine (at 20 mg/kg body weight) using an identical treatment regimen. Each group contained ten mice and the parasitemia levels—obtained from blood smears—are given as a percentage of that obtained in untreated mice (FIG. 4).

W2Mef = conditions: FIG. 8

Compound	increase in the IC50 value for chloroquine, W2Mef compared with 3D7 strain ([1]; FIG. 6)	inhibition of growth of P. falciparum (P. falciparum)	inhibits growth of P. facliparum (P. falciparum; about 5 μM to 10 μM)	effect on the parasite in stained slides [2]	inhibits growth of P. yeoeli (Plasmodium yeoeli; about 1 mg to 50 mg/Kg)	percentage of survivors (Plasmodium yeoeli; oral 20 mg/kg body weight once a day for six days, counted twelve days after infection)	potency against chloroquine-sensitive versus chloroquine-resistant strain ([1]; dose response analysis, 3D7 and W2Mef (FIG. 7))	activity against the chloroquine resistant strain-W2Mef ([1]; preliminary experiments and dose response analysis)	inhibits growth of P. berghei (P. berghei)	manner of action on W2Mef (W2Mef)
CCN(CC)CCCC(C)Nc1ccnc2cc(Cl)ccc12 (centres unmarked) [chloroquine, Chloroquine, reference compound]	near sevenfold increase	–	–	–	–	–	–	–	–	–
Zinc complex of L-proline [PIZ2]	–	> 80%	about 100%	significant disintegration of the parasite	about 90%	88%	remained identical	active	about 80%	direct killing
Zinc complexes of L-histidine [Zinc complex of L-histidine]	–	~85%	–	–	–	–	–	–	–	–
